Experiment [1] has as its target human JAK1 (a.a. 837-1142) (Homo sapiens, UniProt P23458). As to the kind of experiment: In vitro JAK kinase assay (HTRF, phosphorylation of biotinylated peptide), JAK1. It is filed as biochemical. A digest of the protocol: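 His-tagged human JAK1 catalytic domain (a.a. 837-1142), baculovirus/insect-cell expressed, phosphorylates a biotinylated peptide for 1 h at room temperature. Reaction stopped with EDTA; product detected by HTRF (SA-APC, Eu-Py20, 40 min binding). IC50 reported as ranges.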
A general note: In TR-FRET formats the signal depends on donor and acceptor labels being close together.

Experiment [2] has as its target T1, JAK2 (a.a. 828-1132) (Homo sapiens, UniProt O60674).
T1 construct: JAK2 (a.a. 828-1132); His tag (N)
As to the kind of experiment: In vitro JAK kinase assay (HTRF, phosphorylation of biotinylated peptide), JAK2. The class given is biochemical. A digest of the protocol: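 His-tagged catalytic domains of human JAK1 (a.a. 837-1142) and JAK2 (a.a. 828-1132), baculovirus-expressed, phosphorylate a biotinylated peptide for 1 hour at room temperature. Stopped with EDTA; detected by HTRF using SA-APC and Eu-Py20 antibody after 40 min binding; values binned as ranges.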

Where [3] appears, read: Table A, 1 mM ATP, read-out: JAK1 IC50.
[4] abbreviates: Table A, 1 mM ATP, read-out: JAK2 IC50.
Setting [5] is: Table B, 1 mM ATP, read-out: JAK1 IC50.
[6] abbreviates: Table B, 1 mM ATP, read-out: JAK2 IC50.

Structures can show the parent of a compound that is named as a salt. Where two headings read alike, the source gives them in different places. A value given as a limit tells only on which side of the number the result lay.

The term IC50 denotes the point on the concentration scale where inhibition reaches its midpoint.

T1 sequence (O60674 828-1132): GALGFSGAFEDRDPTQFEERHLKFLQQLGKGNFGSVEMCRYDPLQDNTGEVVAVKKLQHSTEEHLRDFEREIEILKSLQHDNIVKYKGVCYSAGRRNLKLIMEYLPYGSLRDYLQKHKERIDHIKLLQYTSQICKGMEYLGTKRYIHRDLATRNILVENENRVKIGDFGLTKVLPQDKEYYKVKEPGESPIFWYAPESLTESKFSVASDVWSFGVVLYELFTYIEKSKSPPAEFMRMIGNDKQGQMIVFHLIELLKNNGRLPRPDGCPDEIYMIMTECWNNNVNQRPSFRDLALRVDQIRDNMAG
Chain of human JAK1 (a.a. 837-1142) (P23458 849-1154): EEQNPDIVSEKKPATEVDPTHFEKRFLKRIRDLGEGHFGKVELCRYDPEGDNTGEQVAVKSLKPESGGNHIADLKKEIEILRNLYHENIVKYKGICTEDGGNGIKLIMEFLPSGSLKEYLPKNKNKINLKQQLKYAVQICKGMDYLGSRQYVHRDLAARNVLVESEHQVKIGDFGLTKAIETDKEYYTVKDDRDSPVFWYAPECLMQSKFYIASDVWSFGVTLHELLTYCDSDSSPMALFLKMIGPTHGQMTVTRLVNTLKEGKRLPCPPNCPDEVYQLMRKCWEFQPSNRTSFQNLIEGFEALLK

Consider `N#CC[C@]1(n2cc(-c3ncnc4[nH]ccc34)cn2)C[C@H](N2CCN(C(=O)N3CC[C@H](O)C3)CC2)C1` [Example 91, {trans-3-(4-{[(3S)-3-hydroxypyrrolidin-1-yl]carbonyl}piperazin-1-yl)-1-[4-(7H-pyrrolo[2,3-d]pyrimidin-4-yl)-1H-pyrazol-1-yl]cyclobutyl}acetonitrile], for which the IC50 in experiment [1] (Table F, 1 mM ATP) is 25 to 100 nM; in experiment [2] (Table F, 1 mM ATP) it was over 100 nM.
Regarding `N#CC[C@]1(n2cc(-c3ncnc4[nH]ccc34)cn2)C[C@@H](N2CCN(C(=O)c3cc(F)cnc3Cl)CC2)C1` [Example 9a, {cis-3-{4-[(2-chloro-5-fluoropyridin-3-yl)carbonyl]piperazin-1-yl}-1-[4-(7H-pyrrolo[2,3-d]pyrimidin-4-yl)-1H-pyrazol-1-yl]cyclobutyl}acetonitrile], the IC50 in experiment [1] (setting [3]) is 10 to 25 nM; in experiment [2] (setting [4]), over 100 nM.
Consider `N#CC[C@]1(n2cc(-c3ncnc4[nH]ccc34)cn2)C[C@@H](N2CCN(C(=O)NC3CCCC3)CC2)C1` [Example 109, 4-{cis-3-(cyanomethyl)-3-[4-(7H-pyrrolo[2,3-d]pyrimidin-4-yl)-1H-pyrazol-1-yl]cyclobutyl}-N-cyclopentylpiperazine-1-carboxamide], for which the IC50 in experiment [1] (Table F, 1 mM ATP) is under 10 nM; in experiment [2] (Table F, 1 mM ATP) it was 25 to 100 nM.
In the case of `N#CC[C@]1(n2cc(-c3ncnc4[nH]ccc34)cn2)C[C@@H](N2CCN(C(=O)c3cccc(C(F)(F)F)c3F)CC2)C1` [Example 22, {cis-3-{4-[2-fluoro-3-(trifluoromethyl)benzoyl]piperazin-1-yl}-1-[4-(7H-pyrrolo[2,3-d]pyrimidin-4-yl)-1H-pyrazol-1-yl]cyclobutyl}acetonitrile], the IC50 was under 10 nM in experiment [1] (setting [3]) and 25 to 100 nM in experiment [2] (setting [4]).
In the case of `CC[C@H](C)NC(=O)N1CCN([C@H]2C[C@](CC#N)(n3cc(-c4ncnc5[nH]ccc45)cn3)C2)CC1` [Example 103, 4-{trans-3-(cyanomethyl)-3-[4-(7H-pyrrolo[2,3-d]pyrimidin-4-yl)-1H-pyrazol-1-yl]cyclobutyl}-N-[(1S)-1-methylpropyl]piperazine-1-carboxamide], the IC50 in experiment [1] (Table F, 1 mM ATP) is under 10 nM; in experiment [2] (Table F, 1 mM ATP), 25 to 100 nM.
For the compound `N#CC[C@]1(n2cc(-c3ncnc4[nH]ccc34)cn2)C[C@H](N2CCN(C(=O)NCC3CC3)CC2)C1` [Example 92, 4-{trans-3-(cyanomethyl)-3-[4-(7H-pyrrolo[2,3-d]pyrimidin-4-yl)-1H-pyrazol-1-yl]cyclobutyl}-N-(cyclopropylmethyl)piperazine-1-carboxamide trifluoroacetate salt], the IC50 was under 10 nM in experiment [1] (Table F, 1 mM ATP) and 25 to 100 nM in experiment [2] (Table F, 1 mM ATP).
Turning to `CC(C)(CO)NCc1cc(OC2CCN([C@H]3C[C@](CC#N)(n4cc(-c5ncnc6[nH]ccc56)cn4)C3)CC2)nc(C(F)(F)F)c1` [Example 153, {trans-3-(4-{[4-{[(2-hydroxy-1,1-dimethylethyl)amino]methyl}-6-(trifluoromethyl)pyridin-2-yl]oxy}piperidin-1-yl)-1-[4-(7H-pyrrolo[2,3-d]pyrimidin-4-yl)-1H-pyrazol-1-yl]cyclobutyl}acetonitrile], the IC50 in experiment [1] (Table F, 1 mM ATP) is under 10 nM; in experiment [2] (Table F, 1 mM ATP), 25 to 100 nM.
On to `N#CC[C@]1(n2cc(-c3ncnc4[nH]ccc34)cn2)C[C@@H](N2CCN(C(=O)Nc3ccc(F)cc3C(F)(F)F)CC2)C1` [Example 3a, 4-{cis-3-(cyanomethyl)-3-[4-(7H-pyrrolo[2,3-d]pyrimidin-4-yl)-1H-pyrazol-1-yl]cyclobutyl}-N-[4-fluoro-2-(trifluoromethyl)phenyl]piperazine-1-carboxamide 2.4×(trifluoroacetate) Salt], for which the IC50 in experiment [1] (setting [3]) is 25 to 100 nM; in experiment [2] (setting [4]) it was over 100 nM.
Turning to `N#CC[C@]1(n2cc(-c3ncnc4[nH]ccc34)cn2)C[C@H](N2CCN(Cc3cncc(F)c3)CC2)C1` [Example 23b, {trans-3-{4-[(5-fluoropyridin-3-yl)methyl]piperazin-1-yl}-1-[4-(7H-pyrrolo[2,3-d]pyrimidin-4-yl)-1H-pyrazol-1-yl]cyclobutyl}acetonitrile], the values for the IC50 in experiment [1] (setting [5]) and in experiment [2] (setting [6]) were under 10 nM and 25 to 100 nM, respectively.
As for “{cis-3-(4-{[6-(1-hydroxy-1-methylethyl)-2-(trifluoromethyl)pyrimidin-4-yl]carbonyl}piperazin-1-yl)-1-[4-(1H-pyrrolo[2,3-b]pyridin-4-yl)-1H-pyrazol-1-yl]cyclobutyl}acetonitrile [Example 77]”, the IC50 in experiment [1] (read-out: JAK1 IC50 (nM) at 1 mM ATP, Table F) is under 10 nM; in experiment [2] (read-out: JAK2 IC50 (nM) at 1 mM ATP, Table F) it was 25 to 100 nM.
Take `C[C@H]1CCCN1C(=O)N1CCN([C@H]2C[C@](CC#N)(n3cc(-c4ncnc5[nH]ccc45)cn3)C2)CC1` [Example 4b, {trans-3-(4-{[(2S)-2-methylpyrrolidin-1-yl]carbonyl}piperazin-1-yl)-1-[4-(7H-pyrrolo[2,3-d]pyrimidin-4-yl)-1H-pyrazol-1-yl]cyclobutyl}acetonitrile]: the results for the concentration for half-maximal inhibition (IC50) in experiment [1] (setting [5]) and in experiment [2] (setting [6]) were under 10 nM and over 100 nM, respectively.
`CCCN(C)C(=O)N1CCN([C@H]2C[C@](CC#N)(n3cc(-c4ncnc5[nH]ccc45)cn3)C2)CC1` [Example 80, 4-{trans-3-(cyanomethyl)-3-[4-(7H-pyrrolo[2,3-d]pyrimidin-4-yl)-1H-pyrazol-1-yl]cyclobutyl}-N-methyl-N-propylpiperazine-1-carboxamide]: the IC50 in experiment [1] (Table F, 1 mM ATP) was under 10 nM; in experiment [2] (Table F, 1 mM ATP), 25 to 100 nM.
In the same order, the values of `N#CC[C@]1(n2cc(-c3ncnc4[nH]ccc34)cn2)C[C@H](N2CCC(Oc3cc(C#N)cc(C(F)(F)F)n3)CC2)C1` (single isomer, unassigned) [Example 134, 2-1(1-{trans-3-(cyanomethyl)-3-[4-(7H-pyrrolo[2,3-d]pyrimidin-4-yl)-1H-pyrazol-1-yl]cyclobutyl}piperidin-4-yl)oxyl-6-(trifluoromethyl)isonicotinonitrile] are under 10 nM and over 100 nM.
For `N#CC[C@]1(n2cc(-c3ncnc4[nH]ccc34)cn2)C[C@@H](N2CCN(C(=O)c3cc(F)cc(C#N)c3)CC2)C1` [Example 12a, 3-[(4-{cis-3-(cyanomethyl)-3-[4-(7H-pyrrolo[2,3-d]pyrimidin-4-yl)-1H-pyrazol-1-yl]cyclobutyl}piperazin-1-yl)carbonyl]-5-fluorobenzonitrile], the IC50 is under 10 nM in experiment [1] (setting [3]) and 25 to 100 nM in experiment [2] (setting [4]).
On to `CN(C)c1ccc(CN2CCN([C@H]3C[C@](CC#N)(n4cc(-c5ncnc6[nH]ccc56)cn4)C3)CC2)c(F)c1C#N` [Example 2b, 3-[(4-{trans-3-(cyanomethyl)-3-[4-(7H-pyrrolo[2,3-d]pyrimidin-4-yl)-1H-pyrazol-1-yl]cyclobutyl}piperazin-1-yl)methyl]-6-(dimethylamino)-2-fluorobenzonitrile], for which the IC50 in experiment [1] (setting [5]) is under 10 nM; in experiment [2] (setting [6]), 25 to 100 nM.
Consider `CN(C)C1(c2cc(C(=O)N3CCN([C@H]4C[C@@](CC#N)(n5cc(-c6ncnc7[nH]ccc67)cn5)C4)CC3)nc(C(F)(F)F)n2)CCC1` [Example 64, {cis-3-(4-{[6-[1-(dimethylamino)cyclobutyl]-2-(trifluoromethyl)pyrimidin-4-yl]carbonyl}piperazin-1-yl)-1-[4-(7H-pyrrolo[2,3-d]pyrimidin-4-yl)-1H-pyrazol-1-yl]cyclobutyl}acetonitrile], for which the IC50 is under 10 nM in experiment [1] (Table F, 1 mM ATP) and 25 to 100 nM in experiment [2] (Table F, 1 mM ATP).
The matching figures for `CCN(CC)Cc1cc(OC2CCN([C@H]3C[C@](CC#N)(n4cc(-c5ncnc6[nH]ccc56)cn4)C3)CC2)cc(C(F)(F)F)c1` [Example 139, {trans-3-{4-[3-[(diethylamino)methyl]-5-(trifluoromethyl)phenoxy]piperidin-1-yl}-1-[4-(7H-pyrrolo[2,3-d]pyrimidin-4-yl)-1H-pyrazol-1-yl]cyclobutyl}acetonitrile]: under 10 nM and over 100 nM.
On to `N#CC[C@]1(n2cc(-c3ncnc4[nH]ccc34)cn2)C[C@H](N2CCN(C(=O)NC3CCC3)CC2)C1` [Example 99, 4-{trans-3-(cyanomethyl)-3-[4-(7H-pyrrolo[2,3-d]pyrimidin-4-yl)-1H-pyrazol-1-yl]cyclobutyl}-N-cyclobutylpiperazine-1-carboxamide], for which the IC50 in experiment [1] (Table F, 1 mM ATP) is under 10 nM; in experiment [2] (Table F, 1 mM ATP), 25 to 100 nM.
As for `N#CC[C@]1(n2cc(-c3ncnc4[nH]ccc34)cn2)C[C@@H](N2CCN(C(=O)c3nc(C(F)(F)F)cs3)CC2)C1` [Example 13a, [cis-1-[4-(7H-pyrrolo[2,3-d]pyrimidin-4-yl)-1H-pyrazol-1-yl]-3-(4-{[4-(trifluoromethyl)-1,3-thiazol-2-yl]carbonyl}piperazin-1-yl)cyclobutyl]acetonitrile], the IC50 in experiment [1] (setting [3]) is under 10 nM; in experiment [2] (setting [4]) it was 25 to 100 nM.
As to `COCc1cc(C(=O)N2CCN([C@H]3C[C@](CC#N)(n4cc(-c5ncnc6[nH]ccc56)cn4)C3)CC2)nc(C(F)(F)F)c1` [Example 76, {trans-3-(4-{[4-(methoxymethyl)-6-(trifluoromethyl)pyridin-2-yl]carbonyl}piperazin-1-yl)-1-[4-(7H-pyrrolo[2,3-d]pyrimidin-4-yl)-1H-pyrazol-1-yl]cyclobutyl}acetonitrile], the IC50 is under 10 nM in experiment [1] (Table F, 1 mM ATP) and 10 to 25 nM in experiment [2] (Table F, 1 mM ATP).
`CNC1(c2cc(C(=O)N3CCN([C@H]4C[C@](CC#N)(n5cc(-c6ncnc7[nH]ccc67)cn5)C4)CC3)nc(C(F)(F)F)n2)CCC1` [Example 70, {trans-3-(4-{[6-[1-(methylamino)cyclobutyl]-2-(trifluoromethyl)pyrimidin-4-yl]carbonyl}piperazin-1-yl)-1-[4-(7H-pyrrolo[2,3-d]pyrimidin-4-yl)-1H-pyrazol-1-yl]cyclobutyl}acetonitrile]: the IC50 was under 10 nM in experiment [1] (Table F, 1 mM ATP) and under 10 nM in experiment [2] (Table F, 1 mM ATP).

The values are drawn from patent US10640506B2, “Cyclobutyl substituted pyrrolopyridine and pyrrolopyrimidines derivatives as JAK inhibitors” (Incyte Corporation, priority 2010, dated 2020).
